Holding throughout (experiment): NCI-60 cell line screen, 48 h
In assay [1] the test system is K562.
Assay [2] has as its system SK-OV-3.
Assay [3] concerns HOP-92.
For assay [4], the system named is LOX IMVI.
Assay [5] concerns M14.
Assay [6] concerns MOLT-4.
Assay [7] has as its system UACC-257.
Assay [8] relates to TK-10.
Assay [9] has as its system RXF 393.
Assay [10] has as its system A549.
The test system of assay [11] is SNB-19.
In assay [12] the test system is HT-29.
For assay [13], the system named is SF-539.
The test system of assay [14] is NCI-H522.
The test system of assay [15] is RPMI-8226.
Assay [16] relates to NCI-H460.

The source of these data is ChEMBL document CHEMBL1201862, “PubChem BioAssay data set” (2004).

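Growth conditions: 96-well plates. Treatment: test compound, 48 hours, 5 concentrations. Analysis: linear interpolation between bracketing concentrations; unreached endpoints set to highest concentration. Abbreviation: GI50, concentration required for 50% inhibition of growth.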 Calls of active or inactive are those of the source. Rule as the data show it: active = GI50 up to about 1.1 µM and inactive = higher.

With `COC(=O)CC1(O)C(=O)OCc2c1cc1n(c2=O)Cc2c-1nc1ccccc1c2OC` (stereo not given), the GI50 was 0.918 µM (active) in assay [1]; 0.266 µM (active) in assay [2]; 12.3 µM (inactive) in assay [3]; 0.0993 µM (active) in assay [4]; 0.188 µM (active) in assay [5]; 0.017 µM (active) in [6]. Also, the GI50 in [7] was 5.38 µM (inactive); in assay [8], > 43.6 µM (inactive); in assay [9] it was 0.508 µM (active); in [10], 0.238 µM (active); in assay [11] it was 0.6 µM (active); in [12] it was 2.17 µM (inactive). Moreover, the GI50 in assay [13] is 0.111 µM (active); in assay [14], 0.29 µM (active); in [15], 0.582 µM (active); in assay [16], 0.0185 µM (active).
Regarding `O=C(N/C(=C\c1cc(Cl)ccc1Cl)c1nc2c(O)nc(S)nc2[nH]1)c1ccccc1`, the GI50 is 7.43 µM (inactive) in [1]; 98.2 µM (inactive) in assay [2]; > 44.6 µM (inactive) in [3]; 22.1 µM (inactive) in assay [4]; 22.9 µM (inactive) in assay [5]; 16.1 µM (inactive) in [6]. Moreover, the GI50 is > 75.3 µM (inactive) in [8]; 21.6 µM (inactive) in assay [9]; 98.6 µM (inactive) in [10]; > 55.2 µM (inactive) in assay [11]; 20.8 µM (inactive) in assay [12]; 27.7 µM (inactive) in assay [13]. For the same compound, the figures for the GI50 in assay [14], in assay [15] and in [16] were 38 µM (inactive), 12.6 µM (inactive) and 34.5 µM (inactive), respectively.
Take `Cc1ccc(NCCO)cc1`: the GI50 is 55 µM (inactive) in assay [1]; > 100 µM (inactive) in assay [2]; 97.1 µM (inactive) in [3]; > 100 µM (inactive) in [4]; > 100 µM (inactive) in assay [5]; 85.1 µM (inactive) in assay [6]. Further, the GI50 in assay [7], in assay [8], in assay [10], in [11], in assay [12] and in [13] was > 100 µM (inactive) in each case. Further, the GI50 in [14], in assay [15] and in assay [16] was > 100 µM (inactive) throughout.
With `O=C1CCC2(c3ccccc3)Nc3ccc(Cl)cc3N12` (stereo not given), the GI50 is 77.8 µM (inactive) in assay [1]; > 100 µM (inactive) in [2]; 84.5 µM (inactive) in [3]; > 100 µM (inactive) in assay [4]; > 100 µM (inactive) in [5]; > 100 µM (inactive) in assay [6]. The GI50 in assay [7], in assay [8], in assay [9], in [10], in assay [12] and in assay [13] was > 100 µM (inactive) each time. Further, the GI50 in [14], in assay [15] and in [16] was > 100 µM (inactive) throughout.
As for `Oc1ccc(C2Oc3cc(O)cc4c3C2c2cc(O)cc3c2C(c2cc(O)cc5c2C4C(c2ccc(O)cc2)O5)C(c2ccc(O)cc2)O3)cc1` (stereo not given), the GI50 was 7 µM (inactive) in [1]; 3.94 µM (inactive) in assay [3]; 7.05 µM (inactive) in [4]; > 25 µM (inactive) in [5]; 6.89 µM (inactive) in assay [6]; 10.5 µM (inactive) in assay [7]. In addition, the GI50 in assay [8] was > 25 µM (inactive); in assay [10], > 25 µM (inactive); in assay [11], 4.78 µM (inactive); in assay [13], 5.58 µM (inactive); in [14] it was 6.55 µM (inactive); in [15] it was 7.45 µM (inactive). Besides, the GI50 in assay [16] is 12.6 µM (inactive).
For the compound `CCOC(=O)/C=C1\Nc2ccccc2C(c2ccccc2)=NC1OC(C)=O` (stereo not given), the GI50 in assay [1] was 97.1 µM (inactive); in assay [2], > 100 µM (inactive); in assay [3], 32.1 µM (inactive); in assay [4] it was > 100 µM (inactive); in assay [5], > 100 µM (inactive); in [6], > 100 µM (inactive). The GI50 in [7] is > 100 µM (inactive); in assay [10], > 100 µM (inactive); in [12], 57.5 µM (inactive); in assay [13], > 100 µM (inactive); in assay [14] it was > 100 µM (inactive); in assay [15], 76.6 µM (inactive). The GI50 in assay [16] is > 100 µM (inactive).
For the compound `C=C(C)C(=O)OC1CCC2(C)C(CCC3C2CCC2(C)C(c4ccc(=O)oc4)CC4OC432)C1` (stereo not given), the GI50 in [1] was 2.69 µM (inactive); in assay [2], 20.5 µM (inactive); in assay [3], 0.804 µM (active); in [4], 3.82 µM (inactive); in assay [6] it was 2.41 µM (inactive); in [7], 2.96 µM (inactive). In addition, the GI50 in assay [9] is 2.78 µM (inactive); in assay [10], 2.31 µM (inactive); in assay [11], 18.5 µM (inactive); in assay [12], 7.94 µM (inactive); in assay [13] it was 5.35 µM (inactive); in assay [14], 2.95 µM (inactive). Besides, the GI50 was 1.6 µM (inactive) in assay [15] and 1.25 µM (inactive) in assay [16].
With `Cc1cn2cc(-c3ccncc3)nc2s1`, the GI50 is > 51.8 µM (inactive) in [1]; > 100 µM (inactive) in [2]; > 100 µM (inactive) in assay [3]; > 49.8 µM (inactive) in assay [4]; > 100 µM (inactive) in [5]; > 100 µM (inactive) in [6]. Also, the GI50 in assay [7], in [8], in assay [10], in assay [11], in [12] and in assay [13] was > 100 µM (inactive) in each case. In addition, the GI50 in [14] is > 100 µM (inactive); in [15], > 47.2 µM (inactive); in assay [16], > 100 µM (inactive).
On to `COc1ccc(-c2cc3[nH]nc(N)c3c(=O)o2)cc1`, for which the GI50 in assay [1], in assay [3], in assay [4], in assay [5], in [6] and in assay [7] was > 100 µM (inactive) each time. Moreover, the GI50 is > 100 µM (inactive) in [8]; 55.3 µM (inactive) in assay [9]; > 100 µM (inactive) in assay [10]; > 100 µM (inactive) in assay [11]; > 100 µM (inactive) in assay [12]; > 100 µM (inactive) in assay [13]. Also, the GI50 in [15] and in assay [16] was > 100 µM (inactive) in each case.
For the compound `COC(=O)C(Cc1cc(OC)c(OC)c(OC)c1)C(=O)OC`, the GI50 in assay [1], in [2], in [3], in assay [4], in assay [6] and in [7] was > 320 µM (inactive) each time. Further, the GI50 in assay [8], in [9], in assay [10], in [12], in [14] and in assay [15] was > 320 µM (inactive) each time. In addition, in assay [16], the GI50 was > 320 µM (inactive).
Take `Cc1cc(Cl)ccc1NC(=O)CC1SC(NC(=O)c2ccccc2Cl)=NC1=O` (stereo not given): the GI50 in assay [1] is 17 µM (inactive); in [3] it was 18.8 µM (inactive); in assay [4], 21.9 µM (inactive); in [5], 17.1 µM (inactive); in assay [6], 2.89 µM (inactive); in assay [7] it was 16.3 µM (inactive). For the same compound, the GI50 in assay [8] is > 10 µM (inactive); in assay [9], 17.7 µM (inactive); in [10], 81.7 µM (inactive); in [11], > 100 µM (inactive); in [12], 21.5 µM (inactive); in assay [13], 19.2 µM (inactive). Also, the values for the GI50 in assay [14], in assay [15] and in assay [16] were 15.1 µM (inactive), 15.2 µM (inactive) and > 100 µM (inactive), respectively.
As to `C=CCCCCCCCCC(=O)O` [UNDECYLENIC ACID], the GI50 is 152 µM (inactive) in assay [1]; 138 µM (inactive) in [2]; 83.2 µM (inactive) in assay [3]; 102 µM (inactive) in assay [4]; 110 µM (inactive) in assay [6]; 179 µM (inactive) in [7]. Moreover, the GI50 was 93.1 µM (inactive) in assay [9]; 103 µM (inactive) in assay [10]; 150 µM (inactive) in [11]; 118 µM (inactive) in assay [12]; 110 µM (inactive) in assay [13]; 105 µM (inactive) in assay [14]. Besides, the values for the GI50 in assay [15] and in assay [16] were 129 µM (inactive) and 94.2 µM (inactive), respectively.
On to `c1ccc(P(=Nc2ccccc2N=P(c2ccccc2)(c2ccccc2)c2ccccc2)(c2ccccc2)c2ccccc2)cc1`, for which the GI50 in assay [1] is 1.09 µM (active); in assay [2] it was 0.327 µM (active); in [3], 0.178 µM (active); in assay [4] it was 0.612 µM (active); in assay [5] it was 1.44 µM (inactive); in assay [7], 0.386 µM (active). The GI50 in assay [8] was 0.54 µM (active); in assay [9] it was 1.05 µM (active); in [10], 0.305 µM (active); in assay [11] it was 0.333 µM (active); in assay [12], 1.3 µM (inactive); in [13], 1.16 µM (inactive). The GI50 was 0.274 µM (active) in assay [14], 1.74 µM (inactive) in assay [15] and 0.528 µM (active) in assay [16].
On to `COc1ccc(/C(C#N)=C2/O/C(=N/N)C(c3ccc(OC)c(OC)c3)C2=O)cc1OC` (stereo not given), for which the GI50 in assay [1], in assay [2], in [3], in [4], in assay [5] and in assay [6] was > 100 µM (inactive) in each case. Further, the GI50 in assay [7], in assay [8], in assay [10], in assay [12], in assay [13] and in [14] was > 100 µM (inactive) throughout. Further, the GI50 in [15] is > 100 µM (inactive).
